This passage reports ΔTm and Ka results from paper PMC11679705 (2024).

The test system of assay [1] is F-SA5-T (DNA, G4) GGAAGGAGGGGTGACAGGG
The assay is described as follows: FRET melting. As to conditions: 10 mM K+, 90 mM Li+; 10 mM lithium cacodylate, pH 7.2; 5 µM compound, 0.2 µM DNA.

Assay [2] deals with F-SA3-T (DNA, G4) GGGGCTAATTGGGGCTGGTGG
The assay is described as follows: FRET melting. As to conditions: 10 mM K+, 90 mM Li+; 10 mM lithium cacodylate, pH 7.2; 5 µM compound, 0.2 µM DNA.

Assay [3] concerns F-ds26-T (DNA, duplex) CAATCGGATCGAATTCGATCCGATTG
Description: FRET melting. As to conditions: 10 mM K+, 90 mM Li+; 10 mM lithium cacodylate, pH 7.2; 5 µM compound, 0.2 µM DNA.

In assay [4] the test system is mit9438 (DNA, G4) GGCGTAGGTTTGGTCTAGGG
The assay is described as follows: UV/Vis titration. As to conditions: 100 mM K+, 10 mM lithium cacodylate, pH 7.2, independent-and-equivalent-sites model. On the set-up: unit not given here.

In assay [5] the test system is SA5 (DNA, G4) GGAAGGAGGGGTGACAGGG
The assay is described as follows: UV/Vis titration. On the set-up: unit not given here. As to conditions: 100 mM K+, 10 mM lithium cacodylate, pH 7.2, independent-and-equivalent-sites model.

Assay [6] deals with EBR1 (DNA, G4) GGGCAGGGGGTGATGGGGAGGAGCCAGGG
The assay is described as follows: UV/Vis titration. As to conditions: 100 mM K+, 10 mM lithium cacodylate, pH 7.2, independent-and-equivalent-sites model. On the set-up: unit not given here.

The test system of assay [7] is ds26 (DNA, duplex) CAATCGGATCGAATTCGATCCGATTG
The assay is described as follows: UV/Vis titration. As to conditions: 100 mM K+, 10 mM lithium cacodylate, pH 7.2, independent-and-equivalent-sites model.

Assay [8] concerns F-mit9438-T (DNA, G4) GGCGTAGGTTTGGTCTAGGG
The assay is described as follows: FRET melting. As to conditions: 10 mM K+, 90 mM Li+; 10 mM lithium cacodylate, pH 7.2; 5 µM compound, 0.2 µM DNA.

The test system of assay [9] is F-EBR1-T (DNA, G4) GGGCAGGGGGTGATGGGGAGGAGCCAGGG
The assay is described as follows: FRET melting. As to conditions: 10 mM K+, 90 mM Li+; 10 mM lithium cacodylate, pH 7.2; 5 µM compound, 0.2 µM DNA.

In assay [10] the test system is F-mit6363-T (DNA, G4) AGGGACGCGGGCGGGGGATATAGGGT
Description: FRET melting. As to conditions: 10 mM K+, 90 mM Li+; 10 mM lithium cacodylate, pH 7.2; 5 µM compound, 0.2 µM DNA.

The test system of assay [11] is F-21-T (DNA, G4) GGGTTAGGGTTAGGGTTAGGG
The assay is described as follows: FRET melting. As to conditions: 10 mM K+, 90 mM Li+; 10 mM lithium cacodylate, pH 7.2; 5 µM compound, 0.2 µM DNA.

For `CCCNc1cc2c3c(ccc4c3c1C(=O)N(CCCN(C)C)C4=O)C(=O)N(CCCN(C)C)C2=O`, in [1], the ΔTm came out at 4.7 ± 1.0 °C.

Take `C[N+](C)(C)c1ccc(/C=C/c2cc(/C=C/c3ccc([N+](C)(C)C)cc3)c(/C=C/c3ccc([N+](C)(C)C)cc3)cc2/C=C/c2ccc([N+](C)(C)C)cc2)cc1`: the shift in melting temperature (ΔTm) was 9.7 ± 0.6 °C in assay [2] and -4.7 ± 0.6 °C in assay [3]. In addition, the Ka was found to be 1.420 in assay [4] (7 µM ligand), 1.065 in [5] (7 µM ligand), 0.801 in assay [6] (7 µM ligand) and 0.562 µM⁻¹ in assay [7] (7 µM ligand).

For `C[N+](C)(C)c1ccc(/C=C/c2cc(/C=C/c3ccc([N+](C)(C)C)cc3)cc(/C=C/c3ccc([N+](C)(C)C)cc3)c2)cc1`, the ΔTm in [2] was 31.3 ± 0.6 °C. For the same compound, the Ka stood at 0.821 in assay [4] (4 µM ligand), 0.651 in assay [5] (4 µM ligand), 0.672 in [6] (4 µM ligand) and 0.083 µM⁻¹ in assay [7] (4 µM ligand).

Turning to `C[n+]1ccc(-c2c3nc(c(-c4cc[n+](C)cc4)c4ccc([nH]4)c(-c4cc[n+](C)cc4)c4nc(c(-c5cc[n+](C)cc5)c5ccc2[nH]5)C=C4)C=C3)cc1`, the thermal shift (ΔTm) in [1] was 29.0 ± 2.1 °C; in assay [8], 31.0 ± 0.0 °C.

On to `C[n+]1ccc(/C=C/c2cc(/C=C/c3cc[n+](C)cc3)c(/C=C/c3cc[n+](C)cc3)cc2/C=C/c2cc[n+](C)cc2)cc1`, for which the ΔTm in assay [3] amounted to 9.0 ± 1.0 °C; in assay [9], 35.3 ± 0.6 °C; in [10], 33.0 ± 0.0 °C; in assay [11], 34.7 ± 0.0 °C. For the same compound, the Ka in assay [4] (7 µM ligand) was found to be 1.548; in [5] (7 µM ligand) it was 0.513; in assay [6] (7 µM ligand) it was 0.367; in [7] (7 µM ligand) it was 0.267 µM⁻¹.

For the compound `C[n+]1ccc(/C=C/c2cc(/C=C/c3cc[n+](C)cc3)cc(/C=C/c3cc[n+](C)cc3)c2)cc1`, the Ka came to 1.167 in [4] (7 µM ligand), 1.411 in assay [5] (7 µM ligand), 0.528 in assay [6] (7 µM ligand) and 0.165 µM⁻¹ in assay [7] (7 µM ligand).

Regarding `NCCOc1cc(C(=O)Nc2cc(OCCN)c3ccccc3n2)nc(C(=O)Nc2cc(OCCN)c3ccccc3n2)c1`, the shift in melting temperature (ΔTm) in assay [3] came out at 0.7 ± 0.6 °C; in assay [11], 24.0 ± 1.1 °C.
